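The concentration for 50% growth inhibition is given as GI50. TGI: concentration producing complete growth inhibition.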
Legend:
Experiment in all cases: inhibition of tumour cell growth, NCI panel, 384-well format
[1] = test system: SK-MEL-2 melanoma
[2] = test system: MDA-MB-435 melanoma
[3] = test system: HOP-92 NSCLC
[4] = test system: HOP-62 NSCLC
[5] = test system: SK-MEL-28 melanoma
[6] = test system: UACC-257 melanoma
[7] = test system: MCF7 breast
[8] = test system: OVCAR-5 ovarian
[9] = test system: HS 578T breast
[10] = test system: OVCAR-8 ovarian
[11] = test system: CAKI-1 renal
[12] = test system: RXF 393 renal
[13] = test system: HCT-116 colon
[14] = test system: SK-OV-3 ovarian
[15] = test system: SNB-75 CNS
[16] = test system: NCI-H322M lung
[17] = test system: SN12C renal
[18] = test system: LOX IMVI melanoma
[19] = test system: HCT-15 colon
[20] = test system: HT29 colon
[21] = test system: NCI/ADR-RES ovarian
[22] = test system: KM12 colon
[23] = test system: NCI-H522 lung
[24] = test system: BT-549 breast
[25] = test system: CCRF-CEM leukemia
[26] = test system: K-562 leukemia
[27] = test system: OVCAR-4 ovarian
[28] = test system: U251 glioblastoma
[29] = test system: NCI-H226 lung
[30] = test system: NCI-H23 lung
[31] = test system: MDA-MB-468 breast
[32] = test system: OVCAR-3 ovarian
[33] = test system: SNB-19 CNS
[34] = test system: RPMI-8226 leukemia
[35] = test system: SF-295 CNS
[36] = test system: A549 NSCLC
[37] = test system: T-47D breast
[38] = test system: 786-0 renal
[39] = test system: UO-31 renal
[40] = test system: PC-3 prostate
[41] = test system: SW-620 colon
[42] = test system: SF-539 CNS
[43] = test system: UACC-62 melanoma
[44] = test system: A498 renal
[45] = test system: ACHN renal
[46] = test system: MDA-MB-231 breast
[47] = test system: IGROV1 ovarian
[48] = test system: MALME-3M melanoma
[49] = test system: SF-268 CNS
[50] = test system: EKVX NSCLC
[51] = test system: M14 melanoma

COc1cccc2c1C(=O)c1c(O)c3c(c(O)c1C2=O)C[C@@](O)(C(C)=O)C[C@@H]3OC1CC(N)C(O)C(C)O1 (stereo partly drawn)
GI50 [1]: 71 nM
TGI [1]: 142 nM
GI50 [2]: 103 nM
TGI [2]: 260 nM
GI50 [3]: 60 nM
TGI [3]: 3140 nM
GI50 [4]: 19.4 nM
TGI [4]: 73.8 nM
GI50 [5]: 103 nM
TGI [5]: 229 nM
GI50 [6]: 90.2 nM
TGI [6]: 216 nM
GI50 [7]: 21.5 nM
TGI [7]: 10500 nM
GI50 [8]: 105 nM
TGI [8]: 325 nM
GI50 [9]: 45.4 nM
TGI [9]: 234 nM
GI50 [10]: 37 nM
TGI [10]: 197 nM
GI50 [11]: 48.6 nM
TGI [11]: 440 nM
GI50 [12]: 102 nM
TGI [12]: 237 nM
GI50 [13]: 14.6 nM
TGI [13]: 1970 nM
GI50 [14]: 36.7 nM
TGI [14]: 181 nM
GI50 [15]: 108 nM
TGI [15]: 269 nM
GI50 [16]: 152 nM
TGI [16]: 433 nM
GI50 [17]: 24.2 nM
TGI [17]: 160 nM
GI50 [18]: 19.3 nM
TGI [18]: 135 nM
GI50 [19]: 51.7 nM
TGI [19]: 1010 nM
GI50 [20]: 29.2 nM
TGI [20]: 148 nM
GI50 [21]: 1520 nM
TGI [21]: 3390 nM
GI50 [22]: 15.9 nM
TGI [22]: 908 nM
TGI [23]: 90.9 nM
GI50 [24]: 17.9 nM
TGI [24]: 94.7 nM
TGI [25]: 16.9 nM
GI50 [26]: 14.6 nM
TGI [26]: 138 nM
GI50 [27]: 165 nM
TGI [27]: 701 nM
GI50 [28]: 10 nM
TGI [28]: 1080 nM
GI50 [29]: 33.5 nM
TGI [29]: 282 nM
GI50 [30]: 21.9 nM
TGI [30]: 69.3 nM
GI50 [31]: 10.7 nM
TGI [31]: 24 nM
GI50 [32]: 78.1 nM
TGI [32]: 566 nM
GI50 [33]: 31.8 nM
TGI [33]: 13100 nM
TGI [34]: 20.9 nM
GI50 [35]: 32.1 nM
TGI [35]: 114 nM
GI50 [36]: 36.9 nM
TGI [36]: 170 nM
GI50 [37]: 36.8 nM
TGI [37]: 2140 nM
GI50 [38]: 31 nM
TGI [38]: 1200 nM
GI50 [39]: 303 nM
TGI [39]: 1470 nM
GI50 [40]: 85.9 nM
TGI [40]: 282 nM
TGI [41]: 201 nM
GI50 [42]: 13.5 nM
TGI [42]: 115 nM
GI50 [43]: 11.5 nM
TGI [43]: 115 nM
GI50 [44]: 28.2 nM
TGI [44]: 199 nM
GI50 [45]: 69.5 nM
TGI [45]: 265 nM
GI50 [46]: 24.3 nM
TGI [46]: 133 nM
GI50 [47]: 118 nM
TGI [47]: 281 nM
GI50 [48]: 44.5 nM
TGI [48]: 176 nM
GI50 [49]: 25.4 nM
TGI [49]: 181 nM
GI50 [50]: 283 nM
TGI [50]: 1650 nM
GI50 [51]: 21.8 nM
TGI [51]: 135 nM

— PubChem BioAssay (NCI)
